Where “and” joins values, the source holds several entries; their conditions need not be identical. Identical values can stand only once.
System: HSSY-II complex spheroid growth, percent test/control
Assay: Anticancer human tumor HSSY-II cell line growth inhibition [Asc];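 further: spheroids exposed to drug for 7 days before reading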
Settings: for viability, T/C: stronger effect = lower value
Protocol: Multicellular complex tumor spheroid response to apoptosis pathway targeting inhibitors Alrizomadlin, Pelcitoclax, and Dasminapant in combination with a variety of drugs and investigational agents in selected tumor cell lines
The MDM2 inhibitor alrizomadlin, the Bcl-2/Bcl-xL inhibitor pelcitoclax, and the IAPs inhibitor dasminapant were evaluated both individually and in combination with standard of care and investigational anticancer small molecules within a complex spheroid model of solid tumors. . Complex spheroids include a stromal component modeled by human endothelial cells (HUVEC) and fibroblasts modeled by human mesenchymal stem cells (MSCs). The concentration ranges selected for each drug and investigational agent were based upon clinically achievable concentrations if the clinical Cmax of the agent was known.
Compounds. The drugs and investigational agents: alrizomadlin (APG-115; NSC831270), pelcitoclax (APG-1252; NSC835773), dasminapant (APG-1387;NSC834197), TAK-243 (NSC785004), copanlisib (NSC809693), olaparib (NSC753686), talazoparib (NSC767125), cobimetinib (NSC 768068), eltanexor (KPT-8602, NSC 794443), abemaciclib (NSC 768073), sotorasib (NSC818433), adagrasib (NSC 831453), MRTX-1133 (NSC 836407), Iadademestat (ORY1001, NSC 806812), and RMC-4630 (NSC839698), were obtained from the NCI Developmental Therapeutics Program Chemical Repository. The FDA-approved anticancer drug set is available from the Developmental Therapeutics Program at https://dtp.cancer.gov/organization/dscb/obtaining/available plates.htm. […] The stock solutions were prepared in dimethyl sulfoxide (DMSO, Sigma-Aldrich, St. Louis, MO, cat. D2650) at 800-fold the tested concentration and stored at -70 degrees C prior to their use. All drugs and investigational agents were tested over a range starting from a high concentration at or near the clinical Cmax and decreasing in half-log increments. If the clinical Cmax for an agent had not been determined, the highest concentration tested was 10 microM.
The patient-derived cancer (PDC) cell lines include five colon adenocarcinomas: 186277-243-T-J2-PDC, 616215-338-R-J1-PDC, 439559-082-T-J2-PDC, 463943-066-T-J2-PDC, and 519858-162-T-J1-PDC; three pancreatic carcinomas: 323965-272-R-J2-PDC, 521955-158-R6-J3-PDC, and 521955-158-R2-J5-PDC; two uterine sarcomas: 327498-152-R-J2-PDC and 993429-296-R-J1-PDC; two rhabdomyosarcomas: 755483-174-R-J1-PDC and 772245-204-R-J1-PDC; two soft tissue sarcomas: 126254-015-R-J1-PDC and 494315-158-R-J1-PDC; two malignant fibrous histiocytomas: 317291-083-R-J1-PDC and 596521-263-R-J1-PDC; two breast carcinomas: 171881-019-R-J1-PDC and 885512-296-R-J2-PDC; and one ovarian carcinoma: 6556581-035-R-J-PDC were obtained from the NCI PDMR, (https://pdmr.cancer.gov). The established cell lines HSSY-2 synovial sarcoma (RRID:CVCL 8719), SYO-1 synovial sarcoma (RRID:CVCL_7146), MPNST malignant peripheral neural sheath tumor were obtained from the Sloan Kettering Institute. The following established cell lines were purchased from the American Type Culture Collection (ATCC, Manassas, VA), Sor the received from the NCI repository:, PANC-1 pancreatic carcinoma (CRL-1469, RRID:CVCL_0480), OVCAR-5 ovarian carcinoma (RRID:CVCL_1628), OVCAR-8 ovarian carcinoma (RRID:CVCL_1629), , MCF-7 breast carcinoma (CRL-12584, RRID:CVCL_0031), MDA-MB-231 breast carcinoma (CRL-12532, RRID:CVCL_0062), NCI-H1876 small cell lung carcinoma (CRL-5902, RRID:CVCL_1503), NCI-H510A small cell lung carcinoma (HTB-184, RRID:CVCL_1565), NCI-H1417 (CRL-5869, RRID:CVCL_1469), and NCI-H196 small cell lung carcinoma (CRL-5823, RRID:CVCL_1509). Dr. Peter Houghton (Greehey Children's Cancer Research Institute, University of Texas Health Science Center, San Antonio, TX) provided Rh-18 rhabdomyosarcoma (RRID:CVCL_1659). Pooled donor human umbilical vein endothelial cells (HUVEC, Lonza, cat. CC-2519) and human mesenchymal stem cells (hMSC, Lonza, cat. PT-2501) were purchased from Lonza (Walkersville, MD).
Cell Culture. […]

[1] = curve of first compound, second compound 0.1 µM
[2] = curve of first compound, second compound 0.316 µM
[3] = curve of first compound, second compound 1 µM
[4] = second compound 0.1 µM, first compound 0.00949 µM
[5] = second compound 0.1 µM, first compound 0.03 µM
[6] = second compound 0.1 µM, first compound 0.0949 µM
[7] = second compound 0.1 µM, first compound 0.3 µM
[8] = second compound 0.316 µM, first compound 0.00949 µM
[9] = second compound 0.316 µM, first compound 0.03 µM
[10] = second compound 0.316 µM, first compound 0.0949 µM
[11] = second compound 0.316 µM, first compound 0.3 µM
[12] = second compound 1 µM, first compound 0.00949 µM
[13] = second compound 1 µM, first compound 0.03 µM
[14] = second compound 1 µM, first compound 0.0949 µM
[15] = second compound 1 µM, first compound 0.3 µM

**Q.** Which results are given for `NC(=O)C(=Cn1cnc(-c2cc(C(F)(F)F)cc(C(F)(F)F)c2)n1)c1cncnc1` + CNC(C)C(=O)NC1CN(S(=O)(=O)c2cccc(S(=O)(=O)N3CCC4CCC(C(=O)NC(c5ccccc5)c5ccccc5)N4C(=O)C(NC(=O)C(C)NC)C3)c2)CCC2CCC(C(=O)NC(c3ccccc3)c3ccccc3)N2C1=O?
**A.** IC50 (curve of first compound, second compound 0.01 µM): 10.6 nM; IC50 (curve of first compound, second compound 0.0316 µM): 14.3 nM; IC50 [1]: 12.9 nM; IC50 [2]: 11.1 nM; IC50 [3]: 12.7 nM; viability, T/C (second compound 0.01 µM, first compound 0.000949 µM): 93.6%; viability, T/C (second compound 0.01 µM, first compound 0.003 µM): 78.1%; viability, T/C (second compound 0.01 µM, first compound 0.00949 µM): 53.5%; viability, T/C (second compound 0.01 µM, first compound 0.03 µM): 23.7%; viability, T/C (second compound 0.01 µM, first compound 0.0949 µM): 11.5%; viability, T/C (second compound 0.01 µM, first compound 0.3 µM): 0.44%; viability, T/C (second compound 0.0316 µM, first compound 0.000949 µM): 77.6%; viability, T/C (second compound 0.0316 µM, first compound 0.003 µM): 79.4%; viability, T/C (second compound 0.0316 µM, first compound 0.00949 µM): 57.8%; viability, T/C (second compound 0.0316 µM, first compound 0.03 µM): 32.5%; viability, T/C (second compound 0.0316 µM, first compound 0.0949 µM): 9.75%; viability, T/C (second compound 0.0316 µM, first compound 0.3 µM): 0.64%; viability, T/C (second compound 0.1 µM, first compound 0.000949 µM): 76.4%; viability, T/C (second compound 0.1 µM, first compound 0.003 µM): 68.2%; viability, T/C [4]: 58.9%; viability, T/C [5]: 28.8%; viability, T/C [6]: 7.63%; viability, T/C [7]: 0.48%; viability, T/C (second compound 0.316 µM, first compound 0.000949 µM): 91.1%; viability, T/C (second compound 0.316 µM, first compound 0.003 µM): 73.5%; viability, T/C [8]: 55.1%; viability, T/C [9]: 29.3%; viability, T/C [10]: 6.77%; viability, T/C [11]: 0.44%; viability, T/C (second compound 1 µM, first compound 0.000949 µM): 88.1%; viability, T/C (second compound 1 µM, first compound 0.003 µM): 79.8%; viability, T/C [12]: 56.3%; viability, T/C [13]: 29.9%; viability, T/C [14]: 5.98%; viability, T/C [15]: 0.56%

**Q.** With `Cc1nc(N2CCC3(CC2)COC(C)C3N)c(CO)nc1Sc1ccnc(N)c1Cl` (configuration not stated) + Cc1c(S(C)(=O)=O)c(-c2cc(F)cc(N3CCN(c4ccc(NS(=O)(=O)c5ccc(NC(CCN6CCC(C(=O)OCCCP(=O)(O)O)CC6)CSc6ccccc6)c(S(=O)(=O)C(F)(F)F)c5)cc4)CC3)c2)c(-c2ccc(Cl)cc2)n1C(C)C as the molecule, how does the IC50 [1] read?
**A.** > 3000 nM

**Q.** And the IC50 [2]?
**A.** > 3000 nM

**Q.** And the IC50 [3]?
**A.** > 3000 nM

**Q.** And the IC50 (curve of first compound, second compound 3.16 µM)?
**A.** > 3000 nM

**Q.** What about the IC50 (curve of first compound, second compound 10 µM) of the same molecule?
**A.** > 3000 nM

**Q.** And the viability, T/C [4]?
**A.** 79.8%

**Q.** And the viability, T/C [5]?
**A.** 83.8%

**Q.** And the viability, T/C [6]?
**A.** 88.9%

**Q.** What about the viability, T/C [7] of the same molecule?
**A.** 78.8%

**Q.** And the viability, T/C (second compound 0.1 µM, first compound 0.949 µM)?
**A.** 84.9%

**Q.** What about the viability, T/C (second compound 0.1 µM, first compound 3 µM) of the same molecule?
**A.** 60.2%

**Q.** What about the viability, T/C [8] of the same molecule?
**A.** 59.4%

**Q.** And the viability, T/C [9]?
**A.** 71.4%

**Q.** What about the viability, T/C [10] of the same molecule?
**A.** 60.7%

**Q.** And the viability, T/C [11]?
**A.** 79.1%

**Q.** And the viability, T/C (second compound 0.316 µM, first compound 0.949 µM)?
**A.** 65.3%

**Q.** What about the viability, T/C (second compound 0.316 µM, first compound 3 µM) of the same molecule?
**A.** 61.7%

**Q.** And the viability, T/C [12]?
**A.** 68.1%

**Q.** And the viability, T/C [13]?
**A.** 66.1%

**Q.** And the viability, T/C [14]?
**A.** 78.5%

**Q.** What about the viability, T/C [15] of the same molecule?
**A.** 51.7%

**Q.** And the viability, T/C (second compound 1 µM, first compound 0.949 µM)?
**A.** 67.5%

**Q.** What about the viability, T/C (second compound 1 µM, first compound 3 µM) of the same molecule?
**A.** 59.2%

**Q.** What about the viability, T/C (second compound 3.16 µM, first compound 0.00949 µM) of the same molecule?
**A.** 64.1%

**Q.** What about the viability, T/C (second compound 3.16 µM, first compound 0.03 µM) of the same molecule?
**A.** 53.9%

**Q.** And the viability, T/C (second compound 3.16 µM, first compound 0.0949 µM)?
**A.** 65%

**Q.** What about the viability, T/C (second compound 3.16 µM, first compound 0.3 µM) of the same molecule?
**A.** 58.1%

**Q.** What about the viability, T/C (second compound 3.16 µM, first compound 0.949 µM) of the same molecule?
**A.** 63.3%

**Q.** And the viability, T/C (second compound 3.16 µM, first compound 3 µM)?
**A.** 62.2%

**Q.** What about the viability, T/C (second compound 10 µM, first compound 0.00949 µM) of the same molecule?
**A.** 50.7%

**Q.** And the viability, T/C (second compound 10 µM, first compound 0.03 µM)?
**A.** 64.1%

**Q.** And the viability, T/C (second compound 10 µM, first compound 0.0949 µM)?
**A.** 62.7%

**Q.** What about the viability, T/C (second compound 10 µM, first compound 0.3 µM) of the same molecule?
**A.** 48.3%

**Q.** What about the viability, T/C (second compound 10 µM, first compound 0.949 µM) of the same molecule?
**A.** 51.3%

**Q.** And the viability, T/C (second compound 10 µM, first compound 3 µM)?
**A.** 54.6%

**Q.** With `Cn1ncnc1[C@H]1c2n[nH]c(=O)c3cc(F)cc(c23)N[C@@H]1c1ccc(F)cc1` as the molecule, how does the viability, T/C (compound 0.000316 µM) read?
**A.** 93.9% and 100% and 96.2%

**Q.** What about the viability, T/C (compound 0.001 µM) of the same molecule?
**A.** 94.1% and 95.6% and 96.7%

**Q.** What about the viability, T/C (compound 0.00316 µM) of the same molecule?
**A.** 90.7% and 96% and 83.2%

**Q.** What about the viability, T/C (compound 0.01 µM) of the same molecule?
**A.** 70.8% and 84.3% and 72.3%

**Q.** What about the viability, T/C (compound 0.0316 µM) of the same molecule?
**A.** 57.3% and 55.5% and 65.2%

**Q.** What about the viability, T/C (compound 0.1 µM) of the same molecule?
**A.** 25.6% and 69.3% and 22.8%

**Q.** What about the IC50 (curve of compound) of the same molecule?
**A.** 38.8 nM and > 100 nM and 42.6 nM

Source: PubChem BioAssay AID1963444 (Molecular Pharmacology Branch, DTP, NCI, 2024)
